Data published in patent US8957097B2, “Hemi-phorboxazole A derivatives and methods of their use” (The Trustees Of The University Of Pennsylvania, priority 2009, dated 2015).
Converted amounts (≈) assume the structure as drawn. Like-named read-outs stand apart in the source and are kept apart here.

How the values were obtained:
C. albicans 96-489 = assay: antifungal microbroth dilution assay, C. albicans 96-489; type: cell-based, Candida albicans
Protocol: (§1) Tests of antifungal activity in microbroth dilution assay against pathogenic Candida strains was performed according to known methods. (National Committee for Clinical Laboratory Standards, 2002. Reference method for broth dilution antifungal susceptibility testing of yeast, 2nd ed. Approved standard M27-A2. National Committee for Clinical Laboratory Standards, Wayne, Pa.). For strains see: Mulder, R. J.; Shafer, C. M.; Dalisay, D. S.; Molinski, T. F. Bioorg. Med. Chem. Lett. 2009, 19, 2928-2930.

C. albicans UCD-FR1 = assay: antifungal microbroth dilution assay, C. albicans UCD-FR1; type: cell-based, Candida albicans; details: for MIC: Candida albicans
Protocol: as §1

HCT-116 Colon = assay: tumor cell growth inhibitory activity, HCT-116 colon; type: cell-based, human; details: for IC50: Homo sapiens
Protocol: (§2) Compounds of the invention were assayed for tumor cell growth inhibitory activity, in parallel with (+) phorboxazole A (1) hemi-phorboxazole A (3).

C. albicans ACTCC 14503 = assay: antifungal microbroth dilution assay, C. albicans ACTCC 14503; type: cell-based, Candida albicans; details: for MIC: Candida albicans
Protocol: as §1

SK-BR-3 Breast = assay: tumor cell growth inhibitory activity, SK-BR-3 breast; type: cell-based, human; details: for IC50: Homo sapiens
Protocol: as §2

[1] = test system: National Cancer Institute's panel of 60 human tumor cell lines; details: mean over NCI panel of 60 human tumor cell lines; cited from earlier work
[2] = Table 5, HCT-116 colon tumor cells
[3] = Table 6, SK-BR-3 breast tumor cells
[4] = Table 6, HCT-116 colon tumor cells

Compound | C. albicans 96-489 MIC (C. albicans 96-489; Table 8, microbroth dilution) [µg/mL] | C. albicans UCD-FR1 MIC (C. albicans UCD-FR1; Table 8, microbroth dilution) [µg/mL] | HCT-116 Colon IC50 (HCT-116 Colon; [4]) [µg/mL] | C. albicans ACTCC 14503 MIC (C. albicans ACTCC 14503; Table 8, microbroth dilution) [µg/mL] | further results
C=C1C[C@@H]2C[C@@H]3CCO[C@@H](O3)c3coc(n3)/C=C/C[C@H]3O[C@@H](/C(C)=C/C#N)[C@H](C)[C@@H](OC(=O)/C=C/C[C@@H](C1)O2)[C@H]3C [Compound (E, E)-5] | – | – | – | – | C. albicans 96-489 MIC (C. albicans 96-489; Table 7, microbroth dilution): 32 µg/mL; C. albicans UCD-FR1 MIC (C. albicans UCD-FR1; Table 7, microbroth dilution): 8 µg/mL; HCT-116 Colon IC50 (HCT-116 Colon; [2]): 1.54 µg/mL; C. albicans ACTCC 14503 MIC (C. albicans ACTCC 14503; Table 7, microbroth dilution): 4 µg/mL
C=C1C[C@@H]2C[C@@H]3C[C@@H](O)C[C@@H](O3)c3coc(n3)/C=C/C[C@H]3O[C@@H](/C(C)=C/C#N)[C@H](C)[C@@H](OC(=O)/C=C\C[C@@H](C1)O2)[C@H]3C [HEMI-PHORBOXAZOLE A, Hemi-Phorboxazole A] | >64 | >64 | >6.2 | >64 | MIC (C. albicans 96-489; Candida albicans, 96489, read-out: C. albicans 96-489 MIC): > 64 µg/mL; MIC (C. albicans UCD-FR1; UCDFR1, read-out: C. albicans UCD-FR1 MIC): > 64 µg/mL; IC50 (SK-BR-3 Breast; SK-BR-3, read-out: SK-BR-3 Breast IC50): > 6.2 µg/mL; SK-BR-3 Breast IC50 (SK-BR-3 Breast; [3]): >6.2 µg/mL; IC50 (HCT-116 Colon; HCT-116, read-out: HCT-116 Colon IC50): > 6.2 µg/mL; MIC (C. albicans ACTCC 14503; ACTCC14503, read-out: C. albicans ACTCC 14503 MIC): > 64 µg/mL
C=C1C[C@@H]2C[C@@H]3CCO[C@@H](O3)c3cccc(c3)/C=C/C[C@H]3O[C@@H](/C(C)=C/c4cccs4)[C@H](C)[C@@H](OC(=O)/C=C\C[C@@H](C1)O2)[C@H]3C [Compound 28] | 32 | 16 | 5.96 | 8 | –
C=C1C[C@@H]2C[C@H]3C[C@@H](O)C[C@H](O3)c3coc(n3)/C=C\C[C@H]3O[C@@H](/C(C)=C/c4coc(C[C@]5(O)C[C@H](OC)C[C@H]([C@H](O)/C=C(C)/C=C/[C@@H](C/C=C/Br)OC)O5)n4)[C@H](C)[C@@H](OC(=O)/C=C\C[C@@H](C1)O2)[C@H]3C [Compound 2, Phorboxazole B] | – | – | – | – | GI50 [1]: 1.58 nM
C=C1C[C@@H]2C[C@@H]3C[C@@H](O)C[C@@H](O3)c3coc(n3)/C=C/C[C@H]3O[C@@H](/C(C)=C/c4coc(C[C@]5(O)C[C@H](OC)C[C@H]([C@H](O)/C=C(C)/C=C/[C@@H](C/C=C/Br)OC)O5)n4)[C@H](C)[C@@H](OC(=O)/C=C\C[C@@H](C1)O2)[C@H]3C [Phorboxazole A] | 1.0 | 2.0 | 0.00071 | 1.0 | MIC (C. albicans 96-489; Candida albicans, 96489, Table 7, microbroth dilution, read-out: C. albicans 96-489 MIC): 1 µg/mL (≈ 0.977 µM); MIC (C. albicans UCD-FR1; UCDFR1, Table 7, microbroth dilution, read-out: C. albicans UCD-FR1 MIC): 2 µg/mL (≈ 1.95 µM); IC50 (SK-BR-3 Breast; Table 5, SK-BR-3 breast tumor cells, read-out: SK-BR-3 Breast IC50): 0.002 µg/mL (≈ 0.00195 µM); GI50 [1]: 1.58 nM; IC50 (HCT-116 Colon; Table 5, HCT-116 colon tumor cells, read-out: HCT-116 Colon IC50): 0.00071 µg/mL (≈ 0.000693 µM); MIC (C. albicans ACTCC 14503; ACTCC14503, Table 7, microbroth dilution, read-out: C. albicans ACTCC 14503 MIC): 1 µg/mL (≈ 0.977 µM)
C=C1C[C@@H]2C[C@@H]3CCO[C@@H](O3)c3cccc(c3)/C=C/C[C@H]3O[C@@H](/C(C)=C/c4ncco4)[C@H](C)[C@@H](OC(=O)/C=C\C[C@@H](C1)O2)[C@H]3C [Compound 27] | 32 | 8 | 5.44 | 4 | –
C=C1C[C@@H]2C[C@@H]3CCO[C@@H](O3)c3coc(n3)/C=C/C[C@H]3O[C@@H](/C(C)=C/I)[C@H](C)[C@@H](OC(=O)/C=C/C[C@@H](C1)O2)[C@H]3C [Compound (E, E)-15] | – | – | – | – | C. albicans 96-489 MIC (C. albicans 96-489; Table 7, microbroth dilution): >64 µg/mL; C. albicans UCD-FR1 MIC (C. albicans UCD-FR1; Table 7, microbroth dilution): >64 µg/mL; HCT-116 Colon IC50 (HCT-116 Colon; [2]): >6.25 µg/mL; C. albicans ACTCC 14503 MIC (C. albicans ACTCC 14503; Table 7, microbroth dilution): >64 µg/mL
C=C1C[C@@H]2C[C@@H]3CCO[C@@H](O3)c3coc(n3)/C=C/C[C@H]3O[C@@H](/C(C)=C/I)[C@H](C)[C@@H](OC(=O)/C=C\C[C@@H](C1)O2)[C@H]3C [Compound (Z, E)-15] | – | – | – | – | C. albicans 96-489 MIC (C. albicans 96-489; Table 7, microbroth dilution): >64 µg/mL; C. albicans UCD-FR1 MIC (C. albicans UCD-FR1; Table 7, microbroth dilution): >64 µg/mL; HCT-116 Colon IC50 (HCT-116 Colon; [2]): >6.25 µg/mL; C. albicans ACTCC 14503 MIC (C. albicans ACTCC 14503; Table 7, microbroth dilution): >64 µg/mL
C=C1C[C@@H]2C[C@@H]3CCO[C@@H](O3)c3cccc(c3)/C=C\C[C@H]3O[C@@H](/C(C)=C/I)[C@H](C)[C@@H](OC(=O)/C=C/C[C@@H](C1)O2)[C@H]3C [Compound (E, Z)-24] | >64 | >64 | >6.25 | >64 | –
C=C1C[C@@H]2C[C@@H]3CCO[C@@H](O3)c3cccc(c3)/C=C/C[C@H]3O[C@@H](/C(C)=C/C#N)[C@H](C)[C@@H](OC(=O)/C=C/C[C@@H](C1)O2)[C@H]3C [Compound (E, E)-6] | >64 | >64 | >6.25 | >64 | –
C=C1C[C@@H]2C[C@@H]3CCO[C@@H](O3)c3cccc(c3)/C=C/C[C@H]3O[C@@H](/C(C)=C/I)[C@H](C)[C@@H](OC(=O)/C=C\C[C@@H](C1)O2)[C@H]3C [Compound (Z, E)-24] | >64 | >64 | >6.25 | >64 | –
C=C1C[C@@H]2C[C@@H]3CCO[C@@H](O3)c3cccc(c3)/C=C/C[C@H]3O[C@@H](/C(C)=C/I)[C@H](C)[C@@H](OC(=O)/C=C/C[C@@H](C1)O2)[C@H]3C [Compound (E, E)-24] | >64 | >64 | >6.25 | >64 | –
C=C1C[C@@H]2C[C@@H]3CCO[C@@H](O3)c3coc(n3)/C=C/C[C@H]3O[C@@H](/C(C)=C/C#N)[C@H](C)[C@@H](OC(=O)/C=C\C[C@@H](C1)O2)[C@H]3C [Compound (Z, E)-5] | – | – | – | – | C. albicans 96-489 MIC (C. albicans 96-489; Table 7, microbroth dilution): >64 µg/mL; C. albicans UCD-FR1 MIC (C. albicans UCD-FR1; Table 7, microbroth dilution): 16 µg/mL; SK-BR-3 Breast IC50 (SK-BR-3 Breast; Table 5, SK-BR-3 breast tumor cells): >6.2 µg/mL; HCT-116 Colon IC50 (HCT-116 Colon; [2]): >6.2 µg/mL; C. albicans ACTCC 14503 MIC (C. albicans ACTCC 14503; Table 7, microbroth dilution): 16 µg/mL
C=C1C[C@@H]2C[C@@H]3CCO[C@@H](O3)c3cccc(c3)/C=C\C[C@H]3O[C@@H](/C(C)=C/C#N)[C@H](C)[C@@H](OC(=O)/C=C/C[C@@H](C1)O2)[C@H]3C [Compound (E, Z)-6] | >64 | >64 | >6.25 | >64 | –
C=C1C[C@@H]2C[C@@H]3CCO[C@@H](O3)c3cccc(c3)/C=C/C[C@H]3O[C@@H](/C(C)=C/C#N)[C@H](C)[C@@H](OC(=O)/C=C\C[C@@H](C1)O2)[C@H]3C [Compound (Z, E)-6] | – | – | 0.207 | – | SK-BR-3 Breast IC50 (SK-BR-3 Breast; [3]): 0.258 µg/mL
